Tested on: Pyrrhocoris apterus L.
Experiment: Ovicidal activity (chemosterilizing): inhibition of egg hatching in the first and second egg batch after oral administration to adults of both sexes
Type: in vivo
Details: drinking water
Description: The test animals were freshly emerged adults of Pyrrhocoris apterus L. and the tested compounds were administered as solutions in drinking water. The concentration 1 mg.ml^-1 corresponded to the dose of 1 mg/g/24 h. Each test was performed on a group of 10 males and 10 females and evaluated according to toxicity and hatchability of the eggs of the first and the second egg batches.

Compound | Inhibition of egg hatching in the first and second egg batch (% inhibition, related to control eggs) (0.01 mg.ml^-1 of water) [%] | Inhibition of egg hatching in the first and second egg batch (% inhibition, related to control eggs) (0.05 mg.ml^-1 of water) [%] | Inhibition of egg hatching in the first and second egg batch (% inhibition, related to control eggs) (0.1 mg.ml^-1 of water) [%] | Inhibition of egg hatching in the first and second egg batch (% inhibition, related to control eggs) (1.0 mg.ml^-1 of water (1 mg.ml^-1 corresponded to the dose of 1 mg/g/24 h)) [%]
Nc1ncnc2c1ncn2CC(O)CO (racemic) [compound 3, (RS)-9-(2,3-dihydroxypropyl)adenine] | 0 | 10 | 37 | 100
Nc1ncnc2c1ncn2CC(O)COCP(=O)(O)O (racemic) [3'-isomer] | – | – | 61 | –
Nc1ncnc2c1ncn2CC(CO)OCP(=O)(O)O (racemic) [2'-isomer] | – | – | 27 | –

— US4659825A, “Isomeric O-phosphonylmethyl derivatives of enantiomeric and racemic 9-(2,3-dihydroxypropyl)adenine” (Ceskoslovenska akademie, priority 1983, dated 1987)
